# Experimental data from patent US20170176412A1, “METHOD FOR PREDICTING OPTION OF DEPRESSION TREATMENT DRUG” (Human Metabolome Technologies Inc., priority 2014, published 2017).
# What was measured:
# [1] = tested on: blood PEA level of depressed patient; test: Blood PEA level of depressed patients before and after administration of SNRI or SSRI (Example 1); type: in vivo; settings: average value; for Blood PEA level After administration: after administration period of about 0.5 to 7 months; for Blood PEA level Before administration: baseline of the drug group, plasma, ion chromatography fluorescent detection
# Procedure: After an informed consent was given to a patient who visited the clinic of the inventors, the patient's blood was collected. The blood PEA level was measured using an ion chromatography fluorescent detection method according to the following procedure. 50 μL of plasma and 450 μL of Milli-Q water were put in an Eppendorf tube and mixed by vortexing. The mixture was transferred to an ultrafiltration filter ([…] 5 kDa cut filter, Millipore Corporation), and subjected to centrifugal filtration (4° C., 9,100×g, 2 hours) until the solution in the filter disappeared. […] As subjects, 30 patients having the blood PEA levels ranging from 0.77 to 2.62 μM were employed. As a depression treatment drug, the SSRI or SNRT shown in Table 3 was administered to the patients. The blood PEA level after the administration was measured in the same procedure as before the administration. Although the administration periods variably depended on the patients, they ranged from about 0.5 to 7 months.
# [2] = tested on: blood PEA level of depressed patient; test: Blood PEA level of depressed patients during continuous administration (Example 2); type: in vivo; settings: for Blood PEA level Before administration: before administration in Example 1, patients with continuous administration; for Blood PEA level After continuous administration / Blood PEA level During continuous administration: continuous administration periods about 6 to 24 months
# Procedure: Among the patients to whom the depression treatment drug was administered in Example 1, the patients who received continuous administration also after the period of Example 1 were investigated. The number of patients who received continuous administration of the SNRI was nine. On the other hand, the number of patients who received continuous administration of the SSRI was five. Although the continuous administration periods (including the administration period in Example 1) variably depended on the patients, they ranged from about 6 to 24 months. The blood PEA levels in the course of and after the end of the continuous administration of these patients were measured in the same procedure as in Example 1.
# • t-test: Significant difference test of blood PEA level after continuous administration with respect to that before administration
smiles,measurement,setting,value
"CCN(CC)C(=O)C1(c2ccccc2)CC1CN (stereo not drawn) [Milnacipran, milnacipran]",Blood PEA level After administration,[1],1.66 µM
same,Blood PEA level Before administration,[1],1.27 µM
same,Blood PEA level Before administration,[2],1.44 µM
same,Blood PEA level After continuous administration,[2],1.94 µM
same,Blood PEA level During continuous administration,[2],1.71 µM
"CNCC[C@H](Oc1cccc2ccccc12)c1cccs1 [Duloxetine, duloxetine]",Blood PEA level After administration,[1],1.46 µM
same,Blood PEA level Before administration,[1],1.10 µM
same,Blood PEA level Before administration,[2],1.11 µM
same,Blood PEA level After continuous administration,[2],1.82 µM
same,Blood PEA level During continuous administration,[2],1.47 µM
"CN[C@H]1CC[C@@H](c2ccc(Cl)c(Cl)c2)c2ccccc21 [Sertraline, sertraline]",Blood PEA level After administration,[1],1.26 µM
same,Blood PEA level Before administration,[1],1.39 µM
same,Blood PEA level Before administration,[2],1.39 µM
same,Blood PEA level After continuous administration,[2],1.47 µM
"Fc1ccc([C@@H]2CCNC[C@H]2COc2ccc3c(c2)OCO3)cc1 [Paroxetine, paroxetine]",Blood PEA level After administration,[1],1.21 µM
same,Blood PEA level Before administration,[1],1.42 µM
"CN(C)CCC[C@@]1(c2ccc(F)cc2)OCc2cc(C#N)ccc21 [Escitalopram, escitalopram]",Blood PEA level After administration,[1],1.22 µM
same,Blood PEA level After continuous administration,[2],1.73 µM
